Source: patent US7488740B2, “Substituted quinolin-4-ylamine analogues” (Neurogen Corporation, priority 2003, dated 2009)

Molecular target: T1, human capsaicin receptor (Homo sapiens, UniProt Q8NER1)
T1 construct: A cDNA encoding full length human capsaicin receptor recited in U.S. Pat. No. 6,482,611 was subcloned in the plasmid pBK-CMV; expressed in transfected cells
Experiment: Calcium mobilization assay (Example 6)
Assay type: cell-based
Settings: concentration required to provide a 50% decrease in the fluorescence response of cells exposed to one IC50 of capsaicin
Protocol: Human embryonic kidney (HEK293) cells were transfected with the pBK-CMV expression construct encoding the full length human capsaicin receptor using standard methods. The transfected cells were selected for two weeks in media containing G418 (400 μg/ml) to obtain a pool of stably transfected cells. Independent clones were isolated from this pool by limiting dilution to obtain clonal stable cell lines for use in subsequent experiments.
Cells transfected with expression plasmids (as described in Example 4) and thereby expressing human capsaicin receptor are seeded and grown to 70-90% confluency in FALCON black-walled, clear-bottomed 96-well plates (#3904, BECTON-DICKINSON, Franklin Lakes, N.J.). The culture medium is emptied from the 96 well plates and FLUO-3 AM calcium sensitive dye (Molecular Probes, Eugene, Oreg.) is added to each well (dye solution: 1 mg FLUO-3 AM, 440 μL DMSO and 440 μl 20% pluronic acid in DMSO, diluted 1:250 in Krebs-Ringer HEPES (KRH) buffer (25 mM HEPES, 5 mM KCl, 0.96 mM NaH2PO4, 1 mM MgSO4, 2 mM CaCl2, 5 mM glucose, 1 mM probenecid, pH 7.4), 50 μl diluted solution per well). Plates are covered with aluminum foil and incubated at 37° C. for 1-2 hours in an environment containing 5% CO2. After the incubation, the dye is emptied from the plates, and the cells are washed once with KRH buffer, and, resuspended in KRH buffer.
Agonist (e.g., olvanil, capsaicin, or RTX)-induced calcium mobilization is monitored using either FLUOROSKAN ASCENT (Labsystems, Franklin, Mass.) or FLIPR (fluorometric imaging plate reader system, Molecular Devices, Sunnyvale, Calif.) instruments. Varying concentrations of the antagonists ruthenium red or capsazepine (RBI; Natick, Mass.) are added to cells concurrently with agonist (e.g., 25-50 nM capsaicin). For agonist-induced calcium responses, data obtained between 30 and 60 seconds after agonist application are used to generate the IC50 values. KALEIDAGRAPH software (Synergy Software, Reading, Pa.) is used to fit the data to the equation: y=a*(1/(1+(b/x)^c)) to determine the IC50 for the response. In this equation, y is the maximum fluorescence signal, x is the concentration of the agonist or antagonist, a is the Emax, b corresponds to the IC50 value and c is the Hill coefficient.
To measure the ability of a test compound to antagonize (inhibit) the response of cells expressing capsaicin receptors to capsaicin or other vanilloid agonist, the IC50 of capsaicin is first determined. An additional 20 μl of KRH buffer and 1 μl DMSO is added to each well of cells, prepared as described above. 100 μl capsaicin in KRH buffer is automatically transferred by the FLIPR instrument to each well. An 8-point concentration response curve, with final capsaicin concentrations of 1 nM to 3 μM, is used to determine capsaicin IC50.
Test compounds are dissolved in DMSO, diluted in 20 μl KRH buffer so that the final concentration of test compounds in the assay well is between 1 μM and 5 μM, and added to cells prepared as described above. The 96 well plates containing prepared cells and test compounds are incubated in the dark, at room temperature for 0.5 to 6 hours. It is important that the incubation not continue beyond 6 hours. Just prior to determining the fluorescence response, 100 μl capsaicin in KRH buffer at twice the IC50 concentration determined from the concentration response curve is automatically added by the FLIPR instrument to each well of the 96 well plate for a final sample volume of 200 μl and a final capsaicin concentration equal to the IC50. The final concentration of test compounds in the assay wells is between 1 μM and 5 μM. […] Antagonists of the capsaicin receptor decrease this response by at least about 20%, preferably by at least about 50%, and most preferably by at least 80% as compared to matched control. The concentration of antagonist required to provide a 50% decrease is the IC50 for the antagonist, and is preferably below 1 micromolar, 100 nanomolar, 10 nanomolar or 1 nanomolar. […]

T1 sequence (Q8NER1 whole entry): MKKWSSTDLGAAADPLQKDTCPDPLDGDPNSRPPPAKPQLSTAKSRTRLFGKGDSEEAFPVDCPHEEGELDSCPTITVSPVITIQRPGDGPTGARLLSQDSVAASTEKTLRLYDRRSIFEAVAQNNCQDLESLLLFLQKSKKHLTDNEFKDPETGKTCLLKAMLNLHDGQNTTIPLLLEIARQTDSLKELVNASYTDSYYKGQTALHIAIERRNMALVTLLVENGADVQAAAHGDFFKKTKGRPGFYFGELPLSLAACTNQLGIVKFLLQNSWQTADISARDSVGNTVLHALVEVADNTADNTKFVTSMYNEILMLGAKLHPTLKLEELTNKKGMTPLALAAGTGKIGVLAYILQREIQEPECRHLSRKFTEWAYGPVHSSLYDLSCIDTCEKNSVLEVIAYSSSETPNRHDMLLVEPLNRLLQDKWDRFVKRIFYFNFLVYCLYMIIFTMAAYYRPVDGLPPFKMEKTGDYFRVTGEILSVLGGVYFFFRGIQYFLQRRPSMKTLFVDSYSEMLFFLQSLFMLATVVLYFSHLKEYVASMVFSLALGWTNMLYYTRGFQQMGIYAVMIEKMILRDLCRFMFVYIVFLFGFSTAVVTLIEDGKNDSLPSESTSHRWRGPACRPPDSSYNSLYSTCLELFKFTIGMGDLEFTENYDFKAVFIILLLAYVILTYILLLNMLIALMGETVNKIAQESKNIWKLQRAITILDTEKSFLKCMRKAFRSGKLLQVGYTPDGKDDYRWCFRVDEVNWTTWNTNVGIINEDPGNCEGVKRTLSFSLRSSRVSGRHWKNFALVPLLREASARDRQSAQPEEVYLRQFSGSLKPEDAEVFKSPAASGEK

| SMILES | IC50 [nM] |
| --- | --- |
| COCc1cc(Nc2ccc(S(=O)(=O)C(C)C)cc2)c2ccc(-c3ncccc3C(F)(F)F)nc2n1 [Compound 13, N-[4-(isopropylsulfonyl)phenyl]-2-(methoxymethyl)-7-[3-(trifluoromethyl)pyridin-2-yl]-1,8-naphthyridin-4-amine] | ≤ 1000 |
| N#Cc1cc(Nc2ccc(C(F)(F)F)cn2)c2ccc(-c3ncccc3C(F)(F)F)nc2n1 [Compound 125, 7-[3-(trifluoromethyl)pyridin-2-yl]-4-{[5-(trifluoromethyl)pyridin-2-yl]amino}-1,8-naphthyridine-2-carbonitrile] | ≤ 1000 |
| CC(C)COCc1cc(Nc2ccc(C(F)(F)F)cn2)c2ccc(-c3ncccc3C(F)(F)F)nc2n1 [Compound 44, 2-(isobutoxymethyl)-7-[3-(trifluoromethyl)pyridin-2-yl]-N-[5-(trifluoromethyl)pyridin-2-yl]-1,8-naphthyridin-4-amine] | ≤ 1000 |
| CCOc1cc(Nc2ccc(C(C)(C)C)cc2)c2ccc(-c3ncccc3C(F)(F)F)cc2n1 [Compound 30, N-(4-tert-butylphenyl)-2-ethoxy-7-[3-(trifluoromethyl)pyridin-2-yl]quinolin-4-amine] | ≤ 1000 |
| CC(C)(C)c1ccc(Nc2cc(N3CCCC3)nc3cc(-c4ncccc4C(F)(F)F)ccc23)cc1 [Compound 28, N-(4-tert-butylphenyl)-2-pyrrolidin-1-yl-7-[3-(trifluoromethyl)pyridin-2-yl]quinolin-4-amine] | ≤ 1000 |
| FC(F)(F)c1ccc(Nc2cc(C3CCC3)nc3nc(-c4ncccc4C(F)(F)F)ccc23)nc1 [Compound 98, 2-cyclobutyl-7-[3-(trifluoromethyl)pyridin-2-yl]-N-[5-(trifluoromethyl)pyridin-2-yl]-1,8-naphthyridin-4-amine] | ≤ 1000 |
| CCCOCc1cc(Nc2ccc(C(F)(F)F)cc2)c2ccc(-c3ncccc3C(F)(F)F)nc2n1 [Compound 43, 2-(propoxymethyl)-N-[4-(trifluoromethyl)phenyl]-7-[3-(trifluoromethyl)pyridin-2-yl]-1,8-naphthyridin-4-amine] | ≤ 1000 |
| FC(F)(F)c1ccc(Nc2cc(N3CCOCC3)nc3nc(-c4ncccc4C(F)(F)F)ccc23)nc1 [Compound 129, 2-morpholin-4-yl-7-[3-(trifluoromethyl)pyridin-2-yl]-N-[5-(trifluoromethyl)pyridin-2-yl]-1,8-naphthyridin-4-amine] | ≤ 1000 |
| FC(F)(F)c1ccc(Nc2ccnc3nc(-c4ncccc4C(F)(F)F)ccc23)cc1 [Compound 35, N-[4-(trifluoromethyl)phenyl]-7-[3-(trifluoromethyl)pyridin-2-yl]-1,8--naphthyridin-4-amine] | ≤ 1000 |
| CCc1cc(Nc2ccc(C(F)(F)F)cn2)c2ccc(-c3ncccc3C(F)(F)F)nc2n1 [Compound 110, 2-ethyl-7-[3-(trifluoromethyl)pyridin-2-yl]-N-[5-(trifluoromethyl)pyridin-2-yl]-1,8-naphthyridin-4-amine] | ≤ 1000 |
| COCc1cc(Nc2ccc(C#N)cc2)c2ccc(-c3ncccc3C(F)(F)F)nc2n1 [Compound 11, 4-({2-(methoxymethyl)-7-[3-(trifluoromethyl)pyridin-2-yl]-1,8-naphthyridin-4-yl}amino)benzonitrile] | ≤ 1000 |
| COC(C)c1cc(Nc2ccc(C(C)(C)O)cn2)c2ccc(-c3ncccc3C(F)(F)F)nc2n1 (stereo not shown) [Compound 121, 2-[6-({2-(1-methoxyethyl)-7-[3-(trifluoromethyl)pyridin-2-yl]-1,8-naphthyridin-4-yl}amino)pyridin-3-yl]propan-2-ol] | ≤ 1000 |
| CC(C)c1cc(Nc2ccc(C(C)(C)O)cn2)c2ccc(-c3ncccc3C(F)(F)F)nc2n1 [Compound 118, 2-[6-({2-isopropyl-7-[3-(trifluoromethyl)pyridin-2-yl]-1,8-naphthyridin-4-yl}amino)pyridin-3-yl]propan-2-ol] | ≤ 1000 |
| CC(C)c1cc(Nc2ccc(Cl)cn2)c2ccc(-c3ncccc3C(F)(F)F)nc2n1 [Compound 105, N-(5-chloropyridin-2-yl)-2-isopropyl-7-[3-(trifluoromethyl)pyridin-2-yl]-1,8-naphthyridin-4-amine] | ≤ 1000 |
| FC(F)(F)c1cnc(Nc2ccnc3nc(-c4ncccc4Cl)ccc23)nc1 [Compound 145, 7-(3-chloropyridin-2-yl)-N-[5-(trifluoromethyl)pyrimidin-2-yl]-1,8-naphthyridin-4-amine] | ≤ 1000 |
| CC(C)COCc1cc(Nc2ccc(C(F)(F)F)cc2)c2ccc(-c3ncccc3C(F)(F)F)nc2n1 [Compound 7, 2-(isobutoxymethyl)-N-[4-(trifluoromethyl)phenyl]-7-[3-(trifluoromethyl)pyridin-2-yl]-1,8-naphthyridin-4-amine] | ≤ 1000 |
| CC(=O)c1ccc(Nc2cc(COCC(C)C)nc3nc(-c4ncccc4C(F)(F)F)ccc23)cc1 [Compound 56, 1-[4-({2-(isobutoxymethyl)-7-[3-(trifluoromethyl)pyridin-2-yl]-1,8-naphthyridin-4-yl}amino)phenyl]ethanone] | ≤ 1000 |
| FC(F)(F)c1ccc(Nc2ccnc3cc(-c4ncccc4C(F)(F)F)ccc23)nc1 [Compound 109, 7-[3-(trifluoromethyl)pyridin-2-yl]-N-[5-(trifluoromethyl)pyridin-2-yl]quinolin-4-amine] | ≤ 1000 |
| CC(C)COCc1cc(Nc2ccc(C(C)(C)O)cn2)c2ccc(-c3ncccc3C(F)(F)F)nc2n1 [Compound 85, 2-[6-({2-(isobutoxymethyl)-7-[3-(trifluoromethyl)pyridin-2-yl]-1,8-naphthyridin-4-yl}amino)pyridin-3-yl]propan-2-ol] | ≤ 1000 |
| CC(C)COc1cc(Nc2ccc(C(C)(C)C)cc2)c2ccc(-c3ncccc3C(F)(F)F)cc2n1 [Compound 19, N-(4-tert-butylphenyl)-2-isobutoxy-7-[3-(trifluoromethyl)pyridin-2-yl]quinolin-4-amine] | ≤ 1000 |
| CN1CCCC(c2cc(Nc3ccc(C(F)(F)F)cn3)c3ccc(-c4ncccc4C(F)(F)F)nc3n2)C1 (stereo not shown) [Compound 124, 2-(1-methylpiperidin-3-yl)-7-[3-(trifluoromethyl)pyridin-2-yl]-N-[5-(trifluoromethyl)pyridin-2-yl]-1,8-naphthyridin-4-amine] | ≤ 1000 |
| CCCc1cc(Nc2ccc(C(C)(C)O)cn2)c2ccc(-c3ncccc3C(F)(F)F)nc2n1 [Compound 117, 2-[6-({2-propyl-7-[3-(trifluoromethyl)pyridin-2-yl]-1,8-naphthyridin-4-yl}amino)pyridin-3-yl]propan-2-ol] | ≤ 1000 |
| COCc1nc2nc(-c3ncccc3C(F)(F)F)ccc2c(Nc2ccc(C(F)(F)F)cc2)c1C(=O)OC [Compound 4, methyl 2-(methoxymethyl)-4-{[4-(trifluoromethyl)phenyl]amino}-7-[3-(trifluoromethyl)pyridin-2-yl]-1,8-naphthyridine-3-carboxylate] | ≤ 1000 |
| CCc1cc(Nc2ccc(C(C)(C)O)cn2)c2ccc(-c3ncccc3C(F)(F)F)nc2n1 [Compound 112, 2-[6-({2-ethyl-7-[3-(trifluoromethyl)pyridin-2-yl]-1,8-naphthyridin-4-yl}amino)pyridin-3-yl]propan-2-ol] | ≤ 1000 |
| CC(=O)c1ccc(Nc2ccnc3nc(-c4ncccc4C(F)(F)F)ccc23)nc1 [Compound 141, 1-[6-({7-[3-(trifluoromethyl)pyridin-2-yl]-1,8-naphthyridin-4-yl}amino)pyridin-3-yl]ethanone] | ≤ 1000 |
